Data taken from publication PMC9920732 (2023).

How the values were obtained:
Assay in all cases: FRET quenching titration (qPCR instrument)
Conditions in all cases: 150 mM KCl, 15 mM NaCl; 20 mM Tris pH 7.4, 37 °C, 1 µM DNA; duplex shifted to quadruplex, complete at 50 µM pyridostatin
[1] = tested on: A:U (Tel22-T annealed to U-containing complement) (DNA, duplex, 2'-deoxyuridine at 10 of strand 2) AGGGTTAGGGTTAGGGTTAGGG/CCCTAACCCUAACCCTAACCCT
[2] = tested on: A:THF (Tel22-T annealed to complement with abasic site) (DNA, mismatch bulge abasic, tetrahydrofuran (THF) abasic site at 10 of strand 2) AGGGTTAGGGTTAGGGTTAGGG/CCCTAACCCNAACCCTAACCCT
[3] = tested on: A:Gap (Tel22-T annealed to two shorter complements, one-base gap) (DNA, duplex, 5'-phosphate on strand 3; one-base gap between strands 2 and 3) AGGGTTAGGGTTAGGGTTAGGG/CCCTAACCC/AACCCTAACCCT

binding [1]: yes | binding [2]: yes | binding [3]: yes
Compound: NCCOc1cc(C(=O)Nc2cc(OCCN)c3ccccc3n2)nc(C(=O)Nc2cc(OCCN)c3ccccc3n2)c1
